From patent US10508109B2 (priority 2015, dated 2019) come the findings set out here.

Like-named read-outs stand apart in the source and are kept apart here.

One assay concerns PC14. The assay is described as follows: Cell-based assay, anti-proliferative activity (Cell Counting Kit-8, 72 hours). The settings on record: Homo sapiens, read-out: IC50 (μM) PC14. Summed up:
(§1)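 Cells seeded at 2,000–3,000 per well and exposed 72 h to compound at 0–100 micro-M (2-fold series). Growth measured with CCK-8; IC50 taken as anti-proliferative indicator.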
(Tetrazolium dyes change colour on reduction, which living cells bring about.)

The subject of another assay is HFL1. The assay is described as above. The settings on record: Homo sapiens, read-out: IC50 (μM) HFL1. Summed up: as §1
A further assay concerns HCT-116. The description is as above. The settings on record: Homo sapiens, read-out: IC50 (μM) HCT-116. Summed up:
as §1

The subject of the next assay is CCD-18Co. The description is as above. The settings on record: Homo sapiens, read-out: IC50 (μM) CCD-18Co. Summed up: as §1
In the next assay the test system is A549. The assay is described as above. The conditions noted are these: Homo sapiens, read-out: IC50 (μM) A549. Summed up: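 Following seeding into 96-well microtiter plates, the cells receive candidate inhibitors, and cellular growth is quantified at the end of the exposure period. An IC50 is computed for each compound.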
Another assay concerns the target SUV39H2 (Homo sapiens (Human), UniProt Q9H5I1). The settings on record: read-out: IC50 (μM) Suv 39H2 assay; enzyme assay.
Setting [1] is: PC-14, PC14 cells, 72 hours, Cell Counting Kit-8.
The mark [2] stands for this setting: HFL1 cells, 72 hours, Cell Counting Kit-8.
Where [3] appears, read: HCT-116 cells, 72 hours, Cell Counting Kit-8.
The mark [4] stands for this setting: CCD-18Co cells, 72 hours, Cell Counting Kit-8.
Setting [5] is: A549 cells, 72 hours, Cell Counting Kit-8.

Sequence of SUV39H2 (Q9H5I1 whole entry): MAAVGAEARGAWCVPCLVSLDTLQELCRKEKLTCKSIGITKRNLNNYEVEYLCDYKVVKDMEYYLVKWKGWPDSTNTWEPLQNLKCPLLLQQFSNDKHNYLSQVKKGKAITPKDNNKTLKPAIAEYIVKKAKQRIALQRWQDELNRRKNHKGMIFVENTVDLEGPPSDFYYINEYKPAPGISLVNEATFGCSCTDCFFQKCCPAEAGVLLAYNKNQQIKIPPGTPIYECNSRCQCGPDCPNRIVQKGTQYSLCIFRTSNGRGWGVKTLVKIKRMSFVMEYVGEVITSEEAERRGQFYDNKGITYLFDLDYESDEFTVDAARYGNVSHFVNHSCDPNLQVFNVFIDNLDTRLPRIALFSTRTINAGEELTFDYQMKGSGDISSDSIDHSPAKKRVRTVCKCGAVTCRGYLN

What is called IC50 is the midpoint of a concentration-inhibition curve. In the case of `COc1cc(OC)c(-c2cn3ccc(N4CCN(C(=O)C5CC5)CC4)nc3n2)cc1Cl` [Example 242, (4-(2-(5-Chloro-2,4-dimethoxyphenyl)imidazo[1,2-a]pyrimidin-7-yl)-piperazin-1-yl)(cyclopropyl)methanone], the IC50 with PC14 (setting [1]) is 6.3 µM; in the assay on HFL1 (setting [2]) it was 10 µM; with HCT-116 (setting [3]), 10 µM; in the assay with CCD-18Co (setting [4]) it was 10 µM; in the assay with A549 (setting [5]) it was 10 µM; at SUV39H2 it was 0.0154 µM.

As for `COc1cc(OC)c(-c2cn3ccc(N4CCN(C(=O)C5CCCC5)CC4)nc3n2)cc1Cl` [Example 243, (4-(2-(5-chloro-2,4-dimethoxyphenyl)imidazo[1,2-a]pyrimidin-7-yl)-piperazin-1-yl)(cyclopentyl)methanone], the IC50 with PC14 (setting [1]) was determined as 3.3 µM; in the assay on HFL1 (setting [2]), 4.8 µM; in the assay on HCT-116 (setting [3]), 5.8 µM; with CCD-18Co (setting [4]) it was 6.1 µM; with A549 (setting [5]), 4.7 µM; on SUV39H2 it was 0.0183 µM.

On to `COc1cc(OC)c(-c2cn3ccc(NC(=O)[C@@H]4CCCN4)cc3n2)cc1Cl` [Example 244, (S)—N-(2-(5-chloro-2,4-dimethoxyphenyl)imidazo[1,2-a]pyridin-7-yl)-pyrrolidine-2-carboxamide], for which the IC50 with PC14 (setting [1]) is 5.2 µM; with HFL1 (setting [2]) it was 9.8 µM; with HCT-116 (setting [3]), 10 µM; in the assay with CCD-18Co (setting [4]) it was 8.8 µM; in the assay on A549 (setting [5]), 10 µM; on SUV39H2, 0.0533 µM.

For `COc1cc(OC)c(-c2cn3ccc(N4CCN(S(=O)(=O)C5CC5)C(COCCN(C)C)C4)cc3n2)cc1Cl` (stereo not drawn) [Example 245, 2-((4-(2-(5-chloro-2,4-dimethoxyphenyl)imidazo[1,2-a]pyridin-7-yl)-1-(cyclopropylsulfonyl)piperazin-2-yl)methoxy)-N,N-dimethylethanamine], the IC50 is 5.1 µM in the assay with PC14 (setting [1]); 5.4 µM with HFL1 (setting [2]); 9.4 µM in the assay on HCT-116 (setting [3]); 5 µM in the assay with CCD-18Co (setting [4]); 5.5 µM in the assay on A549 (setting [5]); 0.00863 µM at SUV39H2.

Turning to `COc1cc(OC)c(-c2cn3ccc(-c4ccc(C(=O)O)cc4)cc3n2)cc1Cl` [Example 246, 4-(2-(5-chloro-2,4-dimethoxyphenyl)imidazo[1,2-a]pyridin-7-yl)benzoic acid], the IC50 with PC14 (setting [1]) turned out to be 10 µM; in the assay with HFL1 (setting [2]) it was 10 µM; in the assay with HCT-116 (setting [3]), 10 µM; in the assay on CCD-18Co (setting [4]), 10 µM; in the assay with A549 (setting [5]), 10 µM; at SUV39H2, 0.0143 µM.

Turning to `COc1cc(OC)c(-c2cn3ccc(-c4ccc(C(=O)NCC5CCCN5)cc4)cc3n2)cc1Cl` (stereo not drawn) [Example 248, 4-(2-(5-chloro-2,4-dimethoxyphenyl)imidazo[1,2-a]pyridin-7-yl)-N-(pyrrolidin-2-ylmethyl)benzamide], the IC50 was 2.6 µM with PC14 (setting [1]); 5.7 µM in the assay on HFL1 (setting [2]); 2.3 µM in the assay with HCT-116 (setting [3]); 3.1 µM with CCD-18Co (setting [4]); 4.6 µM in the assay with A549 (setting [5]); 0.0157 µM on SUV39H2.

Take `COc1cc(OC)c(-c2cn3ccc(NC(=O)[C@@H](N)Cc4c[nH]c5ccccc45)cc3n2)cc1Cl` [Example 250, (S)-2-amino-N-(2-(5-chloro-2,4-dimethoxyphenyl)imidazo[1,2-a]pyridin-7-yl)-3-(1H-indol-3-yl)propanamide]: the 50% inhibitory concentration (IC50) with PC14 (PC-14, 72 h) stood at 4.2 µM; in the assay on HFL1 (HFL1, 72 h), 3.6 µM; with HCT-116 (HCT-116, 72 h) it was 6.9 µM; in the assay on CCD-18Co (CCD-18Co, 72 h), 4 µM; in the assay on A549 (A549, 72 h), 6.6 µM; on SUV39H2 it was 0.0427 µM.

`COc1cc(OC)c(-c2cn3ccc(-c4ccc(C(=O)NCC5CCCNC5)cc4)cc3n2)cc1Cl` (stereo not drawn) [Example 251, 4-(2-(5-chloro-2,4-dimethoxyphenyl)imidazo[1,2-a]pyridin-7-yl)-N-(piperidin-3-ylmethyl)benzamide]: the IC50 was 5.4 µM with PC14 (setting [1]); 8.3 µM with HFL1 (setting [2]); 5.8 µM with HCT-116 (setting [3]); 10 µM with CCD-18Co (setting [4]); 9.7 µM in the assay with A549 (setting [5]); 0.0308 µM on SUV39H2.

`COc1cc(OC)c(-c2cn3ccc(NC(=O)[C@@H](N)C(C)C)cc3n2)cc1Cl` [Example 252, (S)-2-amino-N-(2-(5-chloro-2,4-dimethoxyphenyl)imidazo[1,2-a]pyridin-7-yl)-3-methylbutanamide]: the IC50 with PC14 (PC-14, 72 h) turned out to be 6.3 µM; in the assay with HFL1 (HFL1, 72 h), 5.9 µM; in the assay on HCT-116 (HCT-116, 72 h) it was 5.4 µM; with CCD-18Co (CCD-18Co, 72 h), 4.7 µM; in the assay with A549 (A549, 72 h), 7.8 µM; on SUV39H2, 0.0423 µM.

In the case of `COc1cc(OC)c(-c2cn3ccc(NC(=O)[C@H](C)NC(=O)OC(C)(C)C)cc3n2)cc1Cl` [Example 253, (S)-tert-butyl (1-((2-(5-chloro-2,4-dimethoxyphenyl)imidazo[1,2-a]-pyridin-7-yl)amino)-1-oxopropan-2-yl)carbamate], the IC50 with PC14 (setting [1]) is 6.9 µM; in the assay on HFL1 (setting [2]), 6.5 µM; with HCT-116 (setting [3]), 10 µM; in the assay with CCD-18Co (setting [4]), 6.7 µM; in the assay on A549 (setting [5]), 10 µM; at SUV39H2 it was 0.0582 µM.

In the case of `COc1cc(OC)c(-c2cn3ccc(-c4ccc(C(=O)N5CCNCC5)cc4)cc3n2)cc1Cl` [Example 254, (4-(2-(5-chloro-2,4-dimethoxyphenyl)imidazo[1,2-a]pyridin-7-yl)-phenyl)(piperazin-1-yl)methanone], the IC50 in the assay on PC14 (setting [1]) was 0.99 µM; in the assay with HFL1 (setting [2]), 2.8 µM; in the assay on HCT-116 (setting [3]) it was 2.6 µM; in the assay with CCD-18Co (setting [4]), 3.1 µM; in the assay on A549 (setting [5]) it was 2.7 µM; at SUV39H2 it was 0.0383 µM.

As for `COc1cc(OCSC)c(-c2cn3ccc(N4CCN(S(=O)(=O)C5CC5)CC4)cc3n2)cc1Cl` [Example 255, 2-(5-chloro-4-methoxy-2-((methylthio)methoxy)phenyl)-7-(4-(cyclopropylsulfonyl)piperazin-1-yl)imidazo[1,2-a]pyridine], the IC50 in the assay on PC14 (setting [1]) was 1.5 µM; in the assay on HFL1 (setting [2]), 1.7 µM; with HCT-116 (setting [3]), 2.3 µM; with CCD-18Co (setting [4]), 1.9 µM; in the assay on A549 (setting [5]) it was 2.5 µM; at SUV39H2, 0.00672 µM.

`COc1cc(OC)c(-c2cn3ccc(-c4ccc(C(=O)NCC(O)CN)cc4)cc3n2)cc1Cl` (stereo not drawn) [Example 256, N-(3-amino-2-hydroxypropyl)-4-(2-(5-chloro-2,4-dimethoxyphenyl)-imidazo[1,2-a]pyridin-7-yl)benzamide]: the IC50 is 10 µM in the assay with PC14 (setting [1]); 10 µM in the assay on HFL1 (setting [2]); 10 µM in the assay with HCT-116 (setting [3]); 10 µM in the assay on CCD-18Co (setting [4]); 10 µM in the assay on A549 (setting [5]); 0.0217 µM on SUV39H2.

For `CC[C@@H](C)[C@H](NC(=O)OC(C)(C)C)C(=O)Nc1ccn2cc(-c3cc(Cl)c(OC)cc3OC)nc2c1` [Example 257, tert-butyl ((2S,3R)-1-((2-(5-chloro-2,4-dimethoxyphenyl)imidazo[1,2-a]-pyridin-7-yl)amino)-3-methyl-1-oxopentan-2-yl)carbamate], the IC50 with PC14 (setting [1]) came out at 3 µM; in the assay on HFL1 (setting [2]), 5.2 µM; in the assay on HCT-116 (setting [3]) it was 5.5 µM; in the assay with CCD-18Co (setting [4]) it was 5.1 µM; with A549 (setting [5]) it was 5 µM; on SUV39H2, 0.0435 µM.

Regarding `CC[C@@H](C)[C@H](N)C(=O)Nc1ccn2cc(-c3cc(Cl)c(OC)cc3OC)nc2c1` [Example 258, (2S,3R)-2-amino-N-(2-(5-chloro-2,4-dimethoxyphenyl)imidazo[1,2-a]-pyridin-7-yl)-3-methylpentanamide], the IC50 is 5.7 µM with PC14 (setting [1]); 6.8 µM in the assay with HFL1 (setting [2]); 7.6 µM with HCT-116 (setting [3]); 4.6 µM in the assay on CCD-18Co (setting [4]); 5.8 µM in the assay with A549 (setting [5]); 0.0639 µM at SUV39H2.

For `COc1cc(OC)c(-c2cn3ccc(-c4ccc(C(=O)N5CCC(N)CC5)cc4)cc3n2)cc1Cl` [Example 259, (4-aminopiperidin-1-yl)(4-(2-(5-chloro-2,4-dimethoxyphenyl)imidazo[1,2-a]pyridin-7-yl)phenyl)methanone], the IC50 is 7.9 µM in the assay with PC14 (setting [1]); 8.6 µM with HFL1 (setting [2]); 7.3 µM in the assay with HCT-116 (setting [3]); 10 µM with CCD-18Co (setting [4]); 10 µM in the assay with A549 (setting [5]); 0.0586 µM at SUV39H2.

Consider `CCc1cc(OC)c(Cl)cc1-c1cn2ccc(N3CCNCC3)cc2n1` [Example 260, 2-(5-chloro-2-ethyl-4-methoxyphenyl)-7-(piperazin-1-yl)imidazo-[1,2-a]pyridine], for which the IC50 with PC14 (setting [1]) was 3.4 µM; with HFL1 (setting [2]), 3.6 µM; in the assay on HCT-116 (setting [3]), 3.4 µM; with CCD-18Co (setting [4]), 3.5 µM; with A549 (setting [5]), 6.1 µM; at SUV39H2 it was 0.0344 µM.

For `CCc1cc(OC)c(Cl)cc1-c1cn2ccc(N3CCN(S(=O)(=O)C4CC4)CC3)cc2n1` [Example 261, 2-(5-chloro-2-ethyl-4-methoxyphenyl)-7-(4-(cyclopropylsulfonyl)piperazin-1-yl)imidazo[1,2-a]pyridine], the IC50 stood at 0.059 µM with PC14 (setting [1]); 0.18 µM in the assay on HFL1 (setting [2]); 0.18 µM with HCT-116 (setting [3]); 0.36 µM in the assay with CCD-18Co (setting [4]); 0.12 µM in the assay on A549 (setting [5]); 0.0966 µM on SUV39H2.
